Laboratory results reported in patent US6596867B2, “Tartrate salt of a substituted dipeptide as growth hormone secretagogue” (Pfizer Inc., priority 1997, dated 2003).
Counter-ions that a name gives are not always drawn.

Assays:
[1] = solubility of the crystalline salt (stated property); assay type: physicochemical; settings: crystalline form
[2] = stability of the crystalline salt (stated property); assay type: physicochemical; settings: crystalline form

solubility [1]: high solubility
stability [2]: good stability
SMILES: CC(C)(N)C(=O)N[C@H](COCc1ccc(F)cc1F)C(=O)N1CCC2=NN(CC(F)(F)F)C(=O)[C@]2(Cc2ccccn2)C1 [2-Amino-N-{1-(2,4-difluoro-benzyloxymethyl)-2-oxo-2-[3-oxo-3a-pyridin-2-ylmethyl-2-(2,2.2-trifluoro-ethyl)-2,3,3a,4,6,7-hexahydro-pyrazolo[4,3-c]pyridin-5-yl]-ethyl}-2-methyl-propionamide L-(+) tartrate]
